Measured values from publication PMC2848589, “Raltegravir Is a Potent Inhibitor of XMRV, a Virus Implicated in Prostate Cancer and Chronic Fatigue Syndrome” (PLoS ONE, 2010).
Read-outs that look alike come from different tables or passages of the source.

Legend:
HIV-1LAI = assay: HIV-1 replication in PHA-stimulated peripheral blood mononuclear cells; type: cell-based; conditions: Human immunodeficiency virus 1, PBMC; for EC50: read-out: HIV-1 in PBM cells EC50; for EC90: read-out: HIV-1 in PBM cells EC90
Description: (§1) We tested a total of 45 compounds belonging to different classes of HIV-1 inhibitors, and a few inhibitors of viruses other than retroviruses, for their ability to inhibit XMRV replication in cultured cells. LNCaP and MCF-7 cells were chosen for their ability to support robust in vitro replication of XMRV. […] To determine if a reduction in viral release might be due to toxicity of the compound and not due to specific antiretroviral activity, cellular morphology was monitored every 24 h by microscopic examination, and an MTT [3-(4,5-dimethylthiazol-2-yl)-2,5-diphenyltetrazolium bromide] colorimetric assay was used to measure potential cytotoxicity produced by the compounds. Supernatants were collected every 24 h and assayed for viral release by measuring RT activity. […] For comparison purposes, all compounds evaluated in these studies were also tested against HIV-1LAI in primary human lymphocytes.
(§2) Each well was carefully monitored for signs of cellular toxicity due to the inhibitors by microscopic observation every 24 h. In addition, cell viability was measured using the CellTiter 96 AQueous One Solution cell proliferation assay according to the manufacturer (Promega, Madison, Wis). Viral release from the cells was assayed by measuring RT activity in the supernatant. For this, supernatant from each well was collected every 24 h and frozen at −20°C until it was analyzed by RT assay for viral release as described previously. In brief, oligo(dT)·poly(rA) primer-template assays were performed in the presence of radiolabeled [α-^32P]dTTP and Mn^2+. After incubating the viral supernatants with the RT reaction mix for 1 h at 37°C, samples were spotted onto DE81 DEAE cellulose paper (Whatman) and unincorporated label washed away with 2× SSC (1× SSC = 0.15 M NaCl and 0.015 M sodium citrate). […] Inhibition of viral release as measured on day 6 after inoculation was averaged over 3–5 experiments and plotted. The antiviral EC50 and cytotoxic concentrations (CC50,) was determined from the concentration–response curve using the median effect method. HIV-1 replication assays were performed as described previously using peripheral blood mononuclear cells (PBMC) obtained from the American Red Cross, Atlanta, GA, that were stimulated with phytohemagglutinin (PHA) for 72 hr.

XMRV = XMRV replication in MCF-7 cells (viral release by RT activity in supernatant); type: cell-based; conditions: for EC50 / EC90: MCF7, 144 h; for EC50: read-out: XMRV in MCF-7 cells EC50; for EC90: read-out: XMRV in MCF-7 cells EC90; for activity against XMRV (in words): tested up to 100 µM, Figure 1
[1] = Cytotoxicity in MCF-7 cells (MTT / CellTiter 96 AQueous One); type: cell-based, human; conditions: human
Description: as §1, §2

[2] = Cytotoxicity in PBM cells; type: cell-based; conditions: human, read-out: HIV-1 in PBM cells CC50
Description: as §2

[3] = peripheral blood mononuclear (PBM) cells
[4] = MCF-7 cells, read-out: XMRV in MCF-7 cells CC50
[5] = XMRV-infected MCF-7 cells, RT activity in supernatant, day 6

SMILES	EC50 (HIV-1LAI) [µM]	EC90 (HIV-1LAI) [µM]	EC50 (XMRV) [µM]	EC90 (XMRV) [µM]	therapeutic index (TI, the ratio of CC50/EC50) (XMRV; XMRV, MCF-7 cells)	CC50 [1] [µM]	CC50 [2, 3] [µM]	CC50 [1, 4] [µM]	activity against XMRV (in words) (XMRV)	EC50 (XMRV; [5]) [µM]	CC50 [2] [µM]
O=c1[nH]c(=O)n([C@H]2C[C@H](O)[C@@H](CO)O2)cc1I [5-Iodo-2'-deoxyuridine (IdUrd), 5-Iodo-2'-deoxyuridine]	25.1	38.9	2.2	> 100	low	7.3	85.1				
Nc1nc(NC2CC2)c2ncn([C@H]3C=C[C@@H](CO)C3)c2n1 [Abacavir]	0.17	1.7	> 100	> 100			92.9	92.6			
Nc1nc2c(ncn2COCCO)c(=O)[nH]1 [Acyclovir (ACV), Acyclovir]	> 100	> 100	> 100	> 100		77.6	> 100				
Nc1nc(N)c2ncn([C@H]3CO[C@@H](CO)O3)c2n1 [Amdoxovir (DAPD, AMDX), Amdoxovir]	0.83	4.8	> 100	> 100			> 100	> 100	essentially inactive		
CC(C)CN(C[C@@H](O)[C@H](Cc1ccccc1)NC(=O)O[C@H]1CCOC1)S(=O)(=O)c1ccc(N)cc1 [Amprenavir]	0.027	0.1		> 100			> 100	94.1		68	
CC(=O)Oc1ccccc1C(=O)O [Aspirin]	> 100	> 100	> 100	> 100			> 100	92.2			
COC(=O)N[C@H](C(=O)N[C@@H](Cc1ccccc1)[C@@H](O)CN(Cc1ccc(-c2ccccn2)cc1)NC(=O)[C@@H](NC(=O)OC)C(C)(C)C)C(C)(C)C [Atazanavir]	0.0067	0.022		> 100			27.2	40.7		64.8	
CC(O)(CS(=O)(=O)c1ccc(F)cc1)C(=O)Nc1ccc(C#N)c(C(F)(F)F)c1 (centres unmarked) [Bicalutamide]			53	63.2		8.2					
CCN(CC)CCCC(C)Nc1ccnc2cc(Cl)ccc12 (centres unmarked) [Chloroquine]	9	21.6	56.9	> 100							
CC(C)CN(C[C@@H](O)[C@H](Cc1ccccc1)NC(=O)O[C@H]1CO[C@H]2OCC[C@H]21)S(=O)(=O)c1ccc(N)cc1 [Darunavir]	0.0036	0.0065	> 100	> 100					essentially ineffective		
C[C@]12CC[C@H](O)CC1=CC[C@@H]1[C@@H]2CC[C@]2(C)C(=O)CC[C@@H]12 [Dehydroepiandrosterone (DHEA), Dehydroepiandrosterone]	15.1	71.2	68.6	> 100				64.1			> 100
O=C1Nc2ccc(Cl)cc2[C@@](C#CC2CC2)(C(F)(F)F)O1 [Efavirenz]	0.00073	0.0027	51.6	93			18.4	60.4	did not demonstrate any major activity		
Nc1nc(=O)n([C@@H]2CS[C@H](CO)O2)cc1F [Emtricitabine [(-)-FTC], Emtricitabine]	0.0066	0.052	> 100	> 100		> 100	> 100		essentially inactive		
C=C1[C@H](CO)[C@@H](O)C[C@@H]1n1cnc2c(=O)[nH]c(N)nc21 [Entecavir (ETV), Entecavir]	2.1	16.3	> 100	> 100		93.3	25.2				
O=C(O)P(=O)(O)O [Foscarnet (PFA), Foscarnet]	26.9	71.9	41.9	> 100			> 100	> 100			
Nc1nc(O)c2ncn(COC(CO)CO)c2n1 [Ganciclovir (GCV), Ganciclovir]	> 100	> 100	> 100	> 100		> 100	> 100				
CC(C)(C)NC(=O)[C@@H]1CN(Cc2cccnc2)CCN1C[C@@H](O)C[C@@H](Cc1ccccc1)C(=O)N[C@H]1c2ccccc2C[C@H]1O [Indinavir]	0.018	0.064	> 100	> 100		69.9	> 100		essentially ineffective		
Nc1ccn([C@@H]2CS[C@H](CO)O2)c(=O)n1 [Lamivudine (3TC), Lamivudine]	0.085	0.36	> 100	> 100		> 100	41.9		essentially inactive		
Cc1cccc(C)c1OCC(=O)N[C@@H](Cc1ccccc1)[C@@H](O)C[C@H](Cc1ccccc1)NC(=O)[C@H](C(C)C)N1CCCNC1=O [Lopinavir]	0.011	0.029		> 100		8.5	36			72.2	
CN(C)c1ccc2nc3ccc(=[N+](C)C)cc-3sc2c1 [Methylene blue]	0.024	0.5	0.42	2.7		7.2	6.1				
Cc1c(O)cccc1C(=O)N[C@@H](CSc1ccccc1)[C@H](O)CN1C[C@H]2CCCC[C@H]2C[C@H]1C(=O)NC(C)(C)C [Nelfinavir]	0.018	0.067		> 100		7.4	73.8			34.3	
Nc1nc2c(ncn2CCC(CO)CO)c(=O)[nH]1 [Penciclovir (PCV), Penciclovir]	> 100	> 100	> 100	> 100		98.1	> 100				
NC(=O)c1ncn([C@@H]2O[C@H](CO)[C@@H](O)[C@H]2O)n1 [Ribavirin (RBV), Ribavirin]	6.4	> 100	53	> 100		74.1	> 100				
CC(C)c1nc(CN(C)C(=O)N[C@H](C(=O)N[C@@H](Cc2ccccc2)C[C@H](O)[C@H](Cc2ccccc2)NC(=O)OCc2cncs2)C(C)C)cs1 [Ritonavir]	0.15	0.4		> 100						76.4	
CC(C)(C)NC(=O)[C@@H]1C[C@@H]2CCCC[C@@H]2CN1C[C@@H](O)[C@H](Cc1ccccc1)NC(=O)[C@H](CC(N)=O)NC(=O)c1ccc2ccccc2n1 [Saquinavir]	0.0064	0.021	> 100	> 100		53.7	26.7		essentially ineffective		
CC(C)=CCN1Cc2c(Cl)ccc3[nH]c(=S)n(c23)C[C@@H]1C [TIBO analog, (4S)-8-Chloro-4-methyl-5-(3-methylbut-2-enyl)-3,4,5,6-tetrahydro-1H-[1], [3]diazepino[4,5,6-cd]indole-2(2aH)-thione]									did not demonstrate any major activity		
Cc1cn([C@@H]2C[C@@H](O)[C@H](CO)O2)c(=O)[nH]c1=O [Telbivudine (LdT), Telbivudine]	> 100	> 100	> 100	> 100		88.3	> 100				
C[C@H](Cn1cnc2c(N)ncnc21)OCP(=O)(O)O [Tenofovir (TNV), Tenofovir]	0.88	6.6	82.9	> 100			> 100	79.6	ineffective		
CCC[C@@]1(CCc2ccccc2)CC(O)=C([C@H](CC)c2cccc(NS(=O)(=O)c3ccc(C(F)(F)F)cn3)c2)C(=O)O1 [Tipranavir]	0.035	0.17	> 100	> 100			> 100	75.6	essentially ineffective		
